Where two headings read alike, the source gives them in different places.
Experiments:
AAK1 = biological target: T1, AAK1 (Homo sapiens, UniProt Q2M2I8); test: Kinobeads two-dose competition binding: AAK1; details: for potency estimated from few doses: read-out: Kinobeads Drugmatrix - all: apparent Kd, AAK1; for CATDS: sheet CATDS matrix 2, Gene Name AAK1;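 as to all read-outs here: kinobeads competition pulldown from cell lysate, compound preincubated 45 min at 4 °C, bead-bound protein measured by label-free mass spectrometry against DMSO vehicle control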
T1 construct: to maximize the representation of endogenous proteins; endogenous in cells

ABL2 = biological target: T2, ABL2 (Homo sapiens, UniProt P42684); test: Kinobeads two-dose competition binding: ABL2; details: sheet CATDS matrix 2; Gene Name ABL2
T2 construct: endogenous in cells

ABL1 = ABL1 (Homo sapiens, UniProt P00519); test: Kinobeads two-dose competition binding: ABL1; details: sheet CATDS matrix 2; Gene Name ABL1
ACOX1 = biological target: T3, ACOX1 (Homo sapiens, UniProt Q15067); test: Kinobeads two-dose competition binding: ACOX1; details: for CATDS: sheet CATDS matrix 2, Gene Name ACOX1;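 as to all read-outs here: competition of compounds with immobilized broad-spectrum kinase inhibitor beads in cell lysate at 100 and 1,000 nM, 45 min at 4 °C, bead-bound protein quantified by label-free MS versus DMSO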
T3 construct: endogenous in cells
T3 sequence (Q15067 1-660): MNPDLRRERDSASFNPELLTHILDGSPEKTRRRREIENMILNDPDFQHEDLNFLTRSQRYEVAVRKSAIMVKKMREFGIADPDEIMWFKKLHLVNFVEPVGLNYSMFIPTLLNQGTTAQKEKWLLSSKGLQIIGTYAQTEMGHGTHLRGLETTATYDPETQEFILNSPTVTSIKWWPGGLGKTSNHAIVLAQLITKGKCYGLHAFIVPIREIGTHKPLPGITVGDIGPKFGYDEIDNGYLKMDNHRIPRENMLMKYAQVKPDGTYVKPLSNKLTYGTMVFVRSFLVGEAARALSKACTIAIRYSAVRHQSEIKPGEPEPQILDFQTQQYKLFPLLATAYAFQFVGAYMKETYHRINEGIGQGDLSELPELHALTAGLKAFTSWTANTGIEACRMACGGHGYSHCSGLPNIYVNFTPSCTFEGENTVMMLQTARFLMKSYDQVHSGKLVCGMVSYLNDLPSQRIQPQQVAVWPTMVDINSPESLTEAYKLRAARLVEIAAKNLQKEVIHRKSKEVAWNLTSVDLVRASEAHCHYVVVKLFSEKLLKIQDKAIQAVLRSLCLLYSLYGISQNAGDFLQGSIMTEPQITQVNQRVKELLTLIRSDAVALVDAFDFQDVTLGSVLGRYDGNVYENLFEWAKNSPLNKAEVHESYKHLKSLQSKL

ACAD11 = biological target: T4, ACAD11 (Homo sapiens, UniProt Q709F0); test: Kinobeads two-dose competition binding: ACAD11; details: sheet CATDS matrix 2; Gene Name ACAD11
T4 construct: endogenous in cells
T4 sequence (Q709F0 1-780): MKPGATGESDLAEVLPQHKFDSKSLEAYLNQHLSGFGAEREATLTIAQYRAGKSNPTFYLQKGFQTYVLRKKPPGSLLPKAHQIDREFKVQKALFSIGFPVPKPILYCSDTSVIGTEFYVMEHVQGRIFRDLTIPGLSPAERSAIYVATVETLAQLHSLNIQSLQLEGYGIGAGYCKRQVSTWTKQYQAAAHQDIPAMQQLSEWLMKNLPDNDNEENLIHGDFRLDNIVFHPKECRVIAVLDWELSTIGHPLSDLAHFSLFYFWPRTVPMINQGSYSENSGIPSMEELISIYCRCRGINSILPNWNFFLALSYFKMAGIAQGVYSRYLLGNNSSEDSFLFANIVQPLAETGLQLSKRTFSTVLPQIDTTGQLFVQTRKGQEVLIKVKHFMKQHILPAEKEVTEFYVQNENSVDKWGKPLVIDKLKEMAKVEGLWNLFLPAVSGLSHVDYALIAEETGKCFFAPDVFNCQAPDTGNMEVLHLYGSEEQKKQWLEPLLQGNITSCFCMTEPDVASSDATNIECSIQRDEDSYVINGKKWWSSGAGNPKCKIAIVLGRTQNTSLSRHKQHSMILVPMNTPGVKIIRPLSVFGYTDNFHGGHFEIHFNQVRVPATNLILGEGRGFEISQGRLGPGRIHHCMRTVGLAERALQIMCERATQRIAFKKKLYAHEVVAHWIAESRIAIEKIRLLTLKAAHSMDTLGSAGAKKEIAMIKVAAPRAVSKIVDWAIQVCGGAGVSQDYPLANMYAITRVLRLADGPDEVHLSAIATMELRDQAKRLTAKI

[1] = sheet "Kinobeads Drugmatrix - all", unit inferred, same values below 1000 recur in sheet "nanomolar"

T1 sequence (Q2M2I8 whole entry): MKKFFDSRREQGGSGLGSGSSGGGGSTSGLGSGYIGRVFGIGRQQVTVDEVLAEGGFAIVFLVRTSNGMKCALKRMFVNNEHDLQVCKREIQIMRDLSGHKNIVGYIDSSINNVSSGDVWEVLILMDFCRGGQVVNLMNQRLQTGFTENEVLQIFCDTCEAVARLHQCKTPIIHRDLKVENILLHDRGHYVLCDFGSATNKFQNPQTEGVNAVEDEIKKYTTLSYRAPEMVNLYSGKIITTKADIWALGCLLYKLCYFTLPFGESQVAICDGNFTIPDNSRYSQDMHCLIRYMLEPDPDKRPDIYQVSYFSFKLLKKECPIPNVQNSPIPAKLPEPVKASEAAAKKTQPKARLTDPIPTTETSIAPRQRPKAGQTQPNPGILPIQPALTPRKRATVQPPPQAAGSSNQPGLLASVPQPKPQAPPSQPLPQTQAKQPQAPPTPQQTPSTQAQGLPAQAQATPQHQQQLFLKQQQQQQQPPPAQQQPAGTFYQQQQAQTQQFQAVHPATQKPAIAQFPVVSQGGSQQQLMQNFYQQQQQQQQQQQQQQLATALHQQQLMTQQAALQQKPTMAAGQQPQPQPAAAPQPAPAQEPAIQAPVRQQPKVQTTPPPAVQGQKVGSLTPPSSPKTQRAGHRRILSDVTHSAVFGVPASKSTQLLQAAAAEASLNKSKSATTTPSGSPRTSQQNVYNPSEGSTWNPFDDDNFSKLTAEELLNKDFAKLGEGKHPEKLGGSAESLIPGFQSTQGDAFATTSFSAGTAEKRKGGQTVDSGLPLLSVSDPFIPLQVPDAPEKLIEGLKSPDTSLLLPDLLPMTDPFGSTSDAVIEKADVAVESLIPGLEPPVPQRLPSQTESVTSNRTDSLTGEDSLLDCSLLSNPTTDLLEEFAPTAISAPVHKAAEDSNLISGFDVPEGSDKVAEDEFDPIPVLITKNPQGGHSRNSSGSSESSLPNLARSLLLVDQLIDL
Sequence of ABL1 (P00519 28-1130 limits assumed): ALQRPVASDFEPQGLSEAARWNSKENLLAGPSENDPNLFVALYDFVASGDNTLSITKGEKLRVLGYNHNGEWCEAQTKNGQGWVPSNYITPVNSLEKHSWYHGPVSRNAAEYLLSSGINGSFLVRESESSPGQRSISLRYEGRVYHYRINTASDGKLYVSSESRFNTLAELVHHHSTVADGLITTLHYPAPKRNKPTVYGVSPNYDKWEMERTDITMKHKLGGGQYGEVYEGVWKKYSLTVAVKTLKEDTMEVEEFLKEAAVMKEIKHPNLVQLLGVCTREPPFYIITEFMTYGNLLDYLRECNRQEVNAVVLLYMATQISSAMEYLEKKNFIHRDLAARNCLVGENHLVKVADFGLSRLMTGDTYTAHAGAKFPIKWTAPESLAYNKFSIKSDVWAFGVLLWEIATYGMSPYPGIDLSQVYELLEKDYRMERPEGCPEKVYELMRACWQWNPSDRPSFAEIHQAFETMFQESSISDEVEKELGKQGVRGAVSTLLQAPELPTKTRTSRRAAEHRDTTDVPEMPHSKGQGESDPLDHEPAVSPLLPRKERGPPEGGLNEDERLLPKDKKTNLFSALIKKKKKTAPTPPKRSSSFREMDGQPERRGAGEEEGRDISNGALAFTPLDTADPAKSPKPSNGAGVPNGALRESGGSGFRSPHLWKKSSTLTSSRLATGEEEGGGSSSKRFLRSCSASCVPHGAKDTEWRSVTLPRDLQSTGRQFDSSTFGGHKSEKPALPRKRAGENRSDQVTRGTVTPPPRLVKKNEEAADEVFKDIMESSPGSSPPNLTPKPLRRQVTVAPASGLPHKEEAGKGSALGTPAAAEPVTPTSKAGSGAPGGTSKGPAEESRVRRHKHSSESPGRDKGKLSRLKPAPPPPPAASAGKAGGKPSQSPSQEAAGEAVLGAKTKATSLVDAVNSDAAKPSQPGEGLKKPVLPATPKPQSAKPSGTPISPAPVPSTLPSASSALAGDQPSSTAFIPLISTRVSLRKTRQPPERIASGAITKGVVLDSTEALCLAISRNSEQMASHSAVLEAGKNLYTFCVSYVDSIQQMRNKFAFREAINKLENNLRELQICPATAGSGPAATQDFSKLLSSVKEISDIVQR
T2 sequence (P42684 whole entry): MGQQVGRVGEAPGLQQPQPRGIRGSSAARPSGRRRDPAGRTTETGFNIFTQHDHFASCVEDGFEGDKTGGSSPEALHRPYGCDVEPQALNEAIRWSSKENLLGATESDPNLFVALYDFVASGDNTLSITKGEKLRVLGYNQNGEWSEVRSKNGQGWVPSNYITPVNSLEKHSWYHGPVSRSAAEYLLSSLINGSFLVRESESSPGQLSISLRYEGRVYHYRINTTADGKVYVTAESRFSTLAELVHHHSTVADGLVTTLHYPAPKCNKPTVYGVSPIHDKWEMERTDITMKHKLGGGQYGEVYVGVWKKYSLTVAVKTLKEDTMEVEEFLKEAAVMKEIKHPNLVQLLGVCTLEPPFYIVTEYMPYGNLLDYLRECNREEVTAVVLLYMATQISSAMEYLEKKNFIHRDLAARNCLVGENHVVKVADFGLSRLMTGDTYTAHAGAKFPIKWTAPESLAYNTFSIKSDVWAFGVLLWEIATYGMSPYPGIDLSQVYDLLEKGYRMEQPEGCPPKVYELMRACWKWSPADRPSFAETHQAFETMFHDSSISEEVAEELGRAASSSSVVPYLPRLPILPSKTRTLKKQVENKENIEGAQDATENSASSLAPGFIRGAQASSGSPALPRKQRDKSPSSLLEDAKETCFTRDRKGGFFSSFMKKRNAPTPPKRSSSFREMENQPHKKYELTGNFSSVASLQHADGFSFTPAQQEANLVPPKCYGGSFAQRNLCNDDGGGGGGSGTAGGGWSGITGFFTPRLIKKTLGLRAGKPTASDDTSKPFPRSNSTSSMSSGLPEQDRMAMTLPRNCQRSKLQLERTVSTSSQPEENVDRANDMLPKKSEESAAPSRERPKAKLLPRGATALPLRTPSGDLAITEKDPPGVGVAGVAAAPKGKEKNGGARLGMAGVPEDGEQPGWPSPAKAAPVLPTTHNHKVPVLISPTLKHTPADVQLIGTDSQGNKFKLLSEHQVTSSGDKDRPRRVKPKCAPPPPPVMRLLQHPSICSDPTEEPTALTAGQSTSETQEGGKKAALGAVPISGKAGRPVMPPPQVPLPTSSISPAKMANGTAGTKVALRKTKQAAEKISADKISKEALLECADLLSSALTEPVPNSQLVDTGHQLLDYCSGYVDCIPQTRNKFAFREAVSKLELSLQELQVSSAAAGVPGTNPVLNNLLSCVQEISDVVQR

Row | SMILES | potency estimated from few doses (AAK1; [1]) [nM] | CATDS (AAK1) | CATDS (ABL2) | CATDS (ABL1) | CATDS (ACOX1) | CATDS (ACAD11) | potency estimated from few doses (ACOX1; sheet "Kinobeads Drugmatrix -nanomolar" (only nanomolar interactions), read-out: Kinobeads Drugmatrix -nanomolar: apparent Kd, ACOX1) [nM] | potency estimated from few doses (AAK1) [nM]
1 | Cc1c(Cn2ccn3c(=O)nc(N4CCOCC4)cc23)cccc1C(F)(F)F [GSK2336394A] | – | 0 | 0 | 0 | 0 | 0 | – | –
2 | Cc1nn2c(=O)cc(N3CCOCC3)nc2n1Cc1cccc(Cl)c1Cl [GSK2342769A] | – | 0 | 0 | 0 | 0 | 0 | – | –
3 | COc1cc(Nc2nccc(N3CCC(NC(=O)c4cccc(C#N)c4)C3)n2)cc(OC)c1OC (stereo not drawn) [GSK1379751A] | 786 | 0.2095 | 0 | 0 | 0 | 0 | – | –
4 | Oc1ccc2ncnc(Nc3ccc(OCc4ccccc4)cc3)c2c1 [GI262866A] | – | 0 | 0 | 0 | 0.07628 | 0 | 830 | –
5 | O=C(c1ccc(F)c(F)c1Nc1ccc(I)cc1F)N1CC(O)([C@@H]2CCCCN2)C1 [Cobimetinib, reference compound] | – | 0 | 0 | 0 | 0 | 0 | – | –
6 | COc1cc2c(cc1Nc1nc(N3CCc4ccccc43)c3cc[nH]c3n1)N(C(=O)CN(C)C)CC2 [GSK2186269A] | – | 0 | 0 | 0 | 0 | 0 | – | –
7 | COc1cc2ncn(-c3cc(OCC4CCCO4)c(C(N)=O)s3)c2cc1OC (stereo not drawn) [GSK204607A] | – | 0 | 0 | 0 | 0 | 0 | – | –
8 | O=c1[nH]ccc2nc(N[C@@H]3CCNC3)nc(Nc3cc(Cl)cc(Cl)c3)c12 [GSK2188764A] | – | 0.04842 | 0 | 0 | 0 | 0 | – | 114
9 | O=c1cc(N2CCOCC2)nc2n(Cc3cccc(C(F)(F)F)c3)ccn12 [GSK2297543A] | – | 0 | 0 | 0 | 0 | 0 | – | –
10 | CCCc1ccc(S(=O)(=O)NC2CCN(c3ccnc(Nc4ccc(OC)cc4)n3)C2)cc1 (stereo not drawn) [GSK1379737A] | – | 0 | 0 | 0 | 0 | 0 | – | –
11 | C[C@@H]1CCCCN1c1cc(-c2ccc3c(N)n[nH]c3c2)nc(N)n1 [GSK2258759A] | – | 0 | 0 | 0 | 0 | 0 | – | –
12 | N#Cc1ccc(CCNc2nccc(-c3cccc(CN4CCNCC4)c3)n2)cc1 [GSK2137462A] | – | 0 | 0 | 0 | 0 | 0 | – | –
13 | O=c1cc(N2CCOCC2)nc2n(Cc3cccc(F)c3)ccn12 [GSK2297430A] | – | 0 | 0 | 0 | 0 | 0 | – | –
14 | O=c1[nH]c2cc(Nc3ccc(F)cc3F)ccc2n1CC1CCCCC1 [BI00601000] | – | 0 | 0 | 0 | 0 | 0 | – | –
15 | CCn1c(-c2nonc2N)nc2c(C#CC(C)(C)O)nc(O[C@@H](CN)c3ccccc3)cc21 [GSK1007102B] | 67.3 | 0.04112 | 0 | 0 | 0 | 0 | – | –
16 | Nc1nc(-c2ccc3c(N)n[nH]c3c2)cc(N2CCCCC2)n1 [GSK2228768A] | – | 0.1964 | 0 | 0 | 0 | 0 | – | –
17 | COc1cc(Nc2nccc(N3CCC(NS(=O)(=O)c4ccc(NC(C)=O)cc4)CC3)n2)cc(OC)c1OC [GSK1379825A] | – | 0 | 0 | 0 | 0 | 0 | – | –

Second part, led by results:

Row | potency estimated from few doses (AAK1; [1]) [nM] | CATDS (AAK1) | CATDS (ABL2) | CATDS (ABL1) | CATDS (ACOX1) | CATDS (ACAD11) | SMILES | potency estimated from few doses (ACOX1; sheet "Kinobeads Drugmatrix -nanomolar" (only nanomolar interactions), read-out: Kinobeads Drugmatrix -nanomolar: apparent Kd, ACOX1) [nM] | potency estimated from few doses (AAK1) [nM]
18 | 149 | 0.2807 | 0 | 0 | 0 | 0 | CC(C)Nc1cc(-c2ccc3c(N)n[nH]c3c2)nc(N)n1 [GSK2221681A] | – | –
19 | – | 0 | 0 | 0 | 0 | 0 | CCCN1CCC(c2ccc(Nc3nc(Nc4cc(F)ccc4C(N)=O)c4cc[nH]c4n3)c(OC)c2)CC1 [GSK1326255A] | – | –
20 | – | 0 | 0 | 0 | 0 | 0 | NC(=O)c1sc(-n2cnc3ccccc32)cc1OCc1ccccc1Br [GSK1023156A] | – | –
21 | – | 0 | 0 | 0 | 0 | 0 | CC(C)NCC(Cc1ccccc1)NC(=O)c1cc(Br)c(-c2ccnc3[nH]ccc23)s1 (stereo not drawn) [GSK1383281A] | – | –
22 | – | 0 | 0 | 0 | 0 | 0 | COc1cc(N2CCN(C(C)C)CC2)ccc1Nc1nc(Nc2cccc(F)c2C(=O)O)c2cc[nH]c2n1 [GSK1819799A] | – | –
23 | 410 | 0.1752 | 0 | 0 | 0 | 0 | COc1cc(Nc2nccc(N3CCC(NC(=O)c4cccc(NC(C)=O)c4)C3)n2)cc(OC)c1OC (stereo not drawn) [GSK1379754A] | – | –
24 | – | 0.05355 | 0 | 0 | 0 | 0 | Nc1nc(-c2ccc3c(N)n[nH]c3c2)cc(N2CCCC(NC(=O)c3ccccc3)C2)n1 (stereo not drawn) [GSK2286775B] | – | –
25 | – | 0 | 0 | 0 | 0 | 0 | O=c1[nH]cc(-c2ccc(O)cc2)c2sc(-c3ccncc3)cc12 [GSK1033723A] | – | –
26 | – | 0 | 0 | 0 | 0 | 0 | CC(=O)c1cccc(NC(=O)NC2CCN(c3ccnc(Nc4ccc(F)cc4)n3)C2)c1 (stereo not drawn) [GSK1379710A] | – | –
27 | – | 0 | 0 | 0 | 0 | 0 | NC(=O)c1cccnc1COc1cc(-c2ccc(N3CCOCC3)nc2)cc2ncccc12 [BI01125081] | – | –
28 | – | 0 | 0 | 0 | 0 | 0 | O=C(NCCNc1ccnc(Nc2ccc(F)cc2)n1)Nc1ccccc1F [GSK1379880A] | – | –
29 | – | 0 | 0 | 0 | 0 | 0 | Nc1ncc(-c2ccc3nccc(-c4ccncc4)c3c2)cc1S(=O)(=O)N1CCOCC1 [GSK1627798A] | – | –
30 | > 1000 | 0 | 0 | 0 | 0 | 0 | COc1ccc(Nc2nccc(NCCNC(=O)Nc3cc(C)ccc3C)n2)cc1 [GSK1379899A] | – | –
31 | – | 0 | 0 | 0 | 0 | 0 | COc1ccc2nc(-c3cccc(C)n3)nc(Nc3ccncc3)c2c1 [GSK204919_KCGS] | – | –
